The values below are quoted from earlier work in publication PMC5944417 (Heliyon, 2018).

Some test systems named below: porcine kallikrein; endoproteinase Lys-C; papain.
Details in all cases: ref Maes et al., 2007
A further data set addresses cathepsin B.
The next data set concerns the target plasmin.
Another data set concerns the target trypsin.

Regarding `CC(=O)N[C@@H](CC(C)C)C(=O)N[C@@H](CC(C)C)C(=O)N[C@H](C=O)CCCNC(=N)N` [Leupeptin, N-acetyl-L-leucyl-L-leucyl-L-argininal], the inhibition result with porcine kallikrein, in the data set on endoproteinase Lys-C and in the data set with papain was “inhibited” in each case. The Ki at cathepsin B is 4.1 nM; on plasmin, 3.5 nM; on trypsin, 3.4 nM.

What is called Ki is the equilibrium dissociation constant of an inhibitor or competing ligand from its target.
